Reference: the supplement of paper PMC4977894
± gives the standard deviation of the averaged measurements.

Tests used:
[1] = test system: Homo sapiens (human subject panel, olfactory perception); assay: perceived odor familiarity rating (rating 0-100); higher = more familiar
In short: (§1)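 Values for familiarity, intensity and pleasantness are averaged over subjects. The panel of 55 healthy people aged 18–50 excluded the six lowest performers and rated each paraffin-oil dilution of a molecule at high and low concentrations. Ratings were made only for stimuli the subject reported smelling, on a slider converted to a 0–100 scale.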

[2] = test system: Homo sapiens (human subject panel, olfactory perception); assay: perceived odor pleasantness rating (rating 0-100); higher = more pleasant
In short: as §1

[3] = test system: Homo sapiens (human subject panel, olfactory perception); assay: perceived odor intensity rating (rating 0-100); higher = stronger perceived smell
In short: as §1

[4] = odor dilution in paraffin oil: 1/1,000
[5] = odor dilution in paraffin oil: 1/100,000
[6] = odor dilution in paraffin oil: 1/10
[7] = odor dilution in paraffin oil: 1/10,000,000

Structure (SMILES)	perceived odor familiarity rating [1, 4]	perceived odor familiarity rating [1, 5]	perceived odor pleasantness rating [2, 4]	perceived odor pleasantness rating [2, 5]	perceived odor intensity rating [3, 4]	perceived odor intensity rating [3, 5]	perceived odor familiarity rating [1, 6]	perceived odor pleasantness rating [2, 6]	perceived odor intensity rating [3, 6]	perceived odor familiarity rating [1, 7]	perceived odor pleasantness rating [2, 7]	perceived odor intensity rating [3, 7]
C=Cc1scnc1C [4-Methyl-5-vinylthiazole]	41.4 ± 34	40.3 ± 33	21.3 ± 22	38.6 ± 27	80.5 ± 21	43.5 ± 32	–	–	–	–	–	–
CCCCCOC(C)=O [pentyl acetate]	58.2 ± 33	45.2 ± 28	57.5 ± 32	57.6 ± 23	64.8 ± 30	42.6 ± 28	–	–	–	–	–	–
CCC/C=C/C=O [2-hexenal]	41.1 ± 33	43.1 ± 31	30.9 ± 26	53.1 ± 26	67.4 ± 28	39.7 ± 29	–	–	–	–	–	–
C=CCCC(=O)O [4-Pentenoic acid]	48.1 ± 34	44.9 ± 32	14.1 ± 18	15.7 ± 18	80.5 ± 22	65 ± 29	–	–	–	–	–	–
COc1ccc(C)cc1 [4-Methylanisole]	48.2 ± 31	50.2 ± 28	47.7 ± 28	56.3 ± 28	70.5 ± 21	44.8 ± 31	–	–	–	–	–	–
COc1ccc2ccc(=O)oc2c1 [7-Methoxycoumarin]	47.2 ± 29	–	59.3 ± 25	–	42.3 ± 24	–	52 ± 30	62 ± 25	62 ± 26	–	–	–
COc1cncc(C(C)C)n1 [2-Methoxy-3(5 or 6)-isopropylpyrazine]	50 ± 32	45.3 ± 28	27.3 ± 26	33.3 ± 22	80.8 ± 23	58 ± 30	–	–	–	–	–	–
CC(C)CCO [isoamyl alcohol]	50.8 ± 33	25.9 ± 21	51 ± 33	39.2 ± 25	63.5 ± 32	23.4 ± 26	–	–	–	–	–	–
CCOc1cc(C=O)ccc1O [Ethyl Vanillin]	77.3 ± 26	–	83.9 ± 17	–	71 ± 26	–	79.8 ± 22	84.3 ± 20	75.3 ± 20	–	–	–
CC(C)C[C@H](N)C(=O)O [L-Leucine]	42.9 ± 31	–	46.4 ± 27	–	46.9 ± 29	–	45.5 ± 31	22.9 ± 26	70.9 ± 27	–	–	–
COc1ccccc1O [Guaiacol]	–	47.3 ± 31	–	41.6 ± 26	–	61.8 ± 28	–	–	–	39.4 ± 28	40.9 ± 25	48.6 ± 32
CCCCCCCCCCO [decanol]	49.6 ± 33	39.4 ± 32	38.6 ± 28	46.8 ± 25	66 ± 27	29.1 ± 24	–	–	–	–	–	–
CCCC(O)CC(=O)OCC (stereo unspecified) [ethyl-3-hydroxyhexanoate]	54.2 ± 28	40.1 ± 31	47.3 ± 27	54.4 ± 23	60.3 ± 24	25.1 ± 27	–	–	–	–	–	–
COc1ccccc1C=O [o-Anisaldehyde]	45.8 ± 27	41.2 ± 27	32 ± 22	38 ± 22	70 ± 25	38.5 ± 27	–	–	–	–	–	–
C/C=C\c1ccc(O)c(OC)c1 [Isoeugenol]	71.4 ± 27	60 ± 29	68.4 ± 26	66.9 ± 24	81.6 ± 15	64.5 ± 23	–	–	–	–	–	–
CCCO [propanol]	30.3 ± 21	48.1 ± 32	49.7 ± 20	50.1 ± 21	28.7 ± 28	26.8 ± 28	–	–	–	–	–	–
CC(C)=CCCC(C)CCO (single isomer, unassigned; (-)) [(-)-citronellol]	57.9 ± 31	49.6 ± 28	53.5 ± 30	61.3 ± 22	71.5 ± 27	41.6 ± 33	–	–	–	–	–	–
CC1CCCC(=O)C1 (stereo unspecified) [3-Methylcyclohexanone]	53.2 ± 34	34 ± 27	45.5 ± 30	41.7 ± 22	71 ± 28	39.3 ± 34	–	–	–	–	–	–

Structure (SMILES)	perceived odor familiarity rating [1, 4]	perceived odor familiarity rating [1, 5]	perceived odor pleasantness rating [2, 4]	perceived odor pleasantness rating [2, 5]	perceived odor intensity rating [3, 4]	perceived odor intensity rating [3, 5]	perceived odor familiarity rating [1, 6]	perceived odor pleasantness rating [2, 6]	perceived odor intensity rating [3, 6]	perceived odor familiarity rating [1, 7]	perceived odor pleasantness rating [2, 7]	perceived odor intensity rating [3, 7]
CCCCCCOC(=O)c1ccccc1 [Hexyl benzoate (replicate)]	36.7 ± 29	–	40.3 ± 23	–	35.9 ± 32	–	38.4 ± 28	31.9 ± 24	71.5 ± 26	–	–	–
CC(=O)OCCc1ccccc1 [Phenethyl acetate]	59.1 ± 32	52.2 ± 34	54.9 ± 28	56.9 ± 24	62.1 ± 28	38.2 ± 32	–	–	–	–	–	–
COc1cc(C=O)ccc1OC(C)=O [Vanillin Acetate]	65.3 ± 28	–	72.5 ± 22	–	54.6 ± 27	–	69.6 ± 28	74.3 ± 22	64.3 ± 26	–	–	–
Cc1ccc2oc(=O)ccc2c1 [6-Methylcoumarin]	55.2 ± 30	–	53.9 ± 28	–	62.9 ± 27	–	48.9 ± 32	40.8 ± 32	80.1 ± 19	–	–	–
CC(C)=O [acetone]	38.8 ± 31	–	51.2 ± 24	–	30 ± 29	–	40.6 ± 28	56.6 ± 25	37 ± 32	–	–	–
C=CCOC(=O)C(CC)CC [Allyl 2-ethylbutyrate]	51.6 ± 29	44.1 ± 30	51.5 ± 28	67 ± 19	68.5 ± 28	33.9 ± 28	–	–	–	–	–	–
CCCC(=O)OC [Methyl butyrate]	48.2 ± 29	45.1 ± 32	32.9 ± 31	27.8 ± 25	79.2 ± 19	42.8 ± 30	–	–	–	–	–	–
C1CCNC1 [Pyrrolidine]	–	28.9 ± 29	–	40.7 ± 19	–	26.9 ± 26	–	–	–	37.2 ± 27	37.5 ± 22	26.6 ± 24
CCC(C)c1nccs1 (stereo unspecified) [2-(1-Methylpropyl)thiazole]	41.3 ± 32	43.9 ± 31	25.7 ± 25	31.8 ± 23	83.9 ± 17	55.6 ± 31	–	–	–	–	–	–
Cc1ccc(C(C)CC=O)o1 (stereo unspecified) [3-(5-Methyl-2-furyl)butanal]	41.5 ± 32	36 ± 31	27.9 ± 24	41.6 ± 25	74.3 ± 22	30.8 ± 30	–	–	–	–	–	–
CC1CCCC(=O)O1 (stereo unspecified) [delta-Hexalactone]	38.8 ± 31	32.7 ± 28	45 ± 25	50.5 ± 21	48.4 ± 32	18.4 ± 21	–	–	–	–	–	–
CC(=O)c1ccccc1N [2-Aminoacetophenone]	54.8 ± 30	52.7 ± 30	57.5 ± 27	58.4 ± 26	71.9 ± 24	66.7 ± 27	–	–	–	–	–	–
NCCc1ccc(O)cc1 [Tyramine]	35.4 ± 34	–	58 ± 26	–	20.4 ± 25	–	51 ± 31	34.7 ± 28	53.2 ± 33	–	–	–
CCCc1ccc(O)cc1 [4-propylphenol]	39 ± 33	43.6 ± 27	36.7 ± 24	47.7 ± 21	67.3 ± 24	38.2 ± 30	–	–	–	–	–	–
COc1nccnc1CC(C)C [2-isobutyl-3-methoxypyrazine]	50.1 ± 31	57.7 ± 30	31.2 ± 25	47.9 ± 26	80.6 ± 19	71.7 ± 27	–	–	–	–	–	–
CCCCCCCCCCCC(=O)O [Lauric acid]	37.4 ± 33	–	45.8 ± 25	–	25.3 ± 24	–	49.1 ± 34	28.7 ± 20	71.6 ± 27	–	–	–
CCCCCCCC [Octane]	27.3 ± 26	–	44.1 ± 25	–	13.9 ± 20	–	46.3 ± 29	53.2 ± 25	59.6 ± 31	–	–	–
O=C1CCSC1 [4,5-Dihydro-3(2H)-thiophenone]	52.9 ± 34	30.8 ± 34	21.4 ± 26	33.2 ± 22	85.8 ± 20	37 ± 34	–	–	–	–	–	–
